# Reference: patent US11952344B2, “Heterocyclic compound and use thereof” (TAKEDA PHARMACEUTICAL COMPANY LIMITED, priority 2019, dated 2024)
# Target: T1, Human NMDA (NR1/NR2B) Receptor (Homo sapiens, UniProt Q13224)
# T1 construct: host or cells: HEK293
# Test: NR2B Ca2+ influx assay
# Type: cell-based
# Details: 10 μM compound; HEK293 cells expressing GRIN1 and GRIN2B; glutamic acid/glycine-induced Ca2+ influx, Fluo-4 fluorescence; read-out: inhibitory rate (10 μM compound concentration)
# Excerpt: Experimental Example 1 NR2B Ca^2+ Influx Assay
# To confirm the “antagonistic action on an NMDA receptor containing the NR2B subunit” of the compound of the present invention, human embryonic kidney cell expressing the “NMDA receptor composed of four subunits including 2 sets of heterodimers of NR1 and NR2B”, specifically HEK293 cell expressing human glutamate ionotropic receptor NMDA type subunit 1 (GRIN1) and human glutamate ionotropic receptor NMDA type subunit 2B (GRIN2B), was used and the activation suppressive effect (inhibitory activity) on the receptors by the compound of the present invention was measured.
# HEK293 cells that express GRIN1 and GRIN2B were purchased from ChanTest (Human NMDA (NR1/NR2B) Receptor-expressing, stable replicating cell line (HEK293) catalog No. CT6121).
# As an index of the NMDA receptor activation, intracellular calcium ion (Ca^2+) influx caused by the binding of glycine and glutamic acid with NR1 and NR2B, respectively, was used.
# HEK293 cells that express GRIN1 and GRIN2B were cultured in a cell culture flask in DMEM/F-12 (COSMO BIO, 10-092-CM) medium added with 10% FBS (fetal bovine serum, AusGene), 100 units/mL penicillin, 100 μg/mL streptomycin, 500 μg/mL neomycin, 100 μg/mL Zeocin (registered trade mark, Invitrogen), 5 μg/mL Blasticidin, in an incubator (37° C., 5% CO2).
# The cells were detached from flask with trypsin the day before the assay, suspended in a seeding medium (DMEM (Invitrogen, 31053) added with 10% FBS, 100 units/mL penicillin, 100 μg/mL streptomycin) at 8×10^5 cells/mL, seeded by 25 μL/well in a 384-well plate (Falcon, 356663) at 20000 cells/well, and cultured overnight in an incubator. On the day of the assay, tetracycline (Wako Pure Chemical Industries, Ltd., 209-16561) was diluted with the seeding medium at 2 μg/mL, added at 25 μL/well to the plate seeded with the cells, and cultured for 2 hr in an incubator. Thereafter, the medium was removed, and the cells were washed with 50 μL/well assay buffer (137 mM NaCl, 4 mM KCl, 1.8 mM CaCl2, 10 mM HEPES (pH 7.2), 10 mM Glucose, 0.1% BSA). Then, a loading buffer (assay buffer added with 2.5 μM Fluo-4AM, 2 mM Amaranth, 1 mM Tartrazine) was added at 25 μL/well, and incubation was performed in the incubator for 30 min, and at room temperature for 15 min. A solution (25 μL/well) of the Example compound diluted with the above-mentioned assay buffer at 30 μM (final concentration 10 μM) was added, and the cells were stood for 15 min at room temperature. Using FDSS7000EX/μCELL (Hamamatsu Photonics K.K.), 25 μL/well of an assay buffer containing 30 μM glutamic acid, 30 μM glycine was added, and the fluorescence signal at wavelength of Excitation 480 nm, Emission 540 nm was measured every 3 seconds for 5 min. The inhibitory activity was calculated as a relative activity value (inhibitory rate) that inhibits 100% of the cumulative value of the fluorescence value of a well added with an assay buffer free of glutamic acid, glycine, relative to the cumulative value of the fluorescence value of each well.
# T1 sequence (Q13224 27-1484, other chains not shown): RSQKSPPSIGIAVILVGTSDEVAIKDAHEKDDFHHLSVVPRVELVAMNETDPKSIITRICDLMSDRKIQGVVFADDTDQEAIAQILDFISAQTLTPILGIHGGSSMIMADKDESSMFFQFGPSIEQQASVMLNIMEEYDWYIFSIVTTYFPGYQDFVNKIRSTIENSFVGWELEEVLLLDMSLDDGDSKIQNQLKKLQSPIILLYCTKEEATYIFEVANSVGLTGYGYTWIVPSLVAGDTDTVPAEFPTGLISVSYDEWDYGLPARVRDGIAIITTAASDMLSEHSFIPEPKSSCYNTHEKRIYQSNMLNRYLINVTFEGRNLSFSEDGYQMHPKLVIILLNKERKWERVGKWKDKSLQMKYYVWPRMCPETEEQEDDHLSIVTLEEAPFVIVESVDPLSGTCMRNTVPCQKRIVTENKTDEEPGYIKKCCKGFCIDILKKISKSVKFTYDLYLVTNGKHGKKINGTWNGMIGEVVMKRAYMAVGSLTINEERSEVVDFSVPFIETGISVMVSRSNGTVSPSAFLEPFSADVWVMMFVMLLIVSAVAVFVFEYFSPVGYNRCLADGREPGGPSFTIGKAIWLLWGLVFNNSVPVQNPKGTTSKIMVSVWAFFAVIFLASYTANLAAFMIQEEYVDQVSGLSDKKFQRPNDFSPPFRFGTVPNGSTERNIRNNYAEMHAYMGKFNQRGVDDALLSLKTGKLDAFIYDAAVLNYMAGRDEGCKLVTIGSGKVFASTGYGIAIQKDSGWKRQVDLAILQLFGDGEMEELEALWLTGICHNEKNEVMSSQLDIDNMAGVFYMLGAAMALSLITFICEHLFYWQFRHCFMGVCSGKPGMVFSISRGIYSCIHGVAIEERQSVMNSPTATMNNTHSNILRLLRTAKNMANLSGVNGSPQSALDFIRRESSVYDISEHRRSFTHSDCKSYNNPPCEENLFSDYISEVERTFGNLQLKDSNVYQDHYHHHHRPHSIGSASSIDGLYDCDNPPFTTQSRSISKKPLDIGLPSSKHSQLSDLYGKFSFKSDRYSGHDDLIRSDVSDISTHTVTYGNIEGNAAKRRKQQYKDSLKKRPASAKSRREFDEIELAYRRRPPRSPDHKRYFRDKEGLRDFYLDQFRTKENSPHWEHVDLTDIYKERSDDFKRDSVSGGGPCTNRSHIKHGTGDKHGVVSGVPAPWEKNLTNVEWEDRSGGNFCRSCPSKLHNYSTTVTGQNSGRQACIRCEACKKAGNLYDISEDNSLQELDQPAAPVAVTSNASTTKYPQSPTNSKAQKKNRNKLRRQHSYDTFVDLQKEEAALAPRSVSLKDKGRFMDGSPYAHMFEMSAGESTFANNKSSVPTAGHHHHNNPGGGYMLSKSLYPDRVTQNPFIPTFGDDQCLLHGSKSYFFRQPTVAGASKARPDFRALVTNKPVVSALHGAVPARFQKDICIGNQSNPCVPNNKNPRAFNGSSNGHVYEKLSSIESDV
row,Compound,inhibition at 10 µM
1,"COc1c(F)cc(C(=O)NCc2cncnc2OC2CC2)cc1F [Example 74, N-{[4-(cyclopropyloxy)-pyrimidin-5-yl]methyl}-3,5-difluoro-4-methoxybenzamide]",90%
2,"CCOc1ncc(C(=O)NCc2cncnc2OC2CC2)cc1F [Example 75, N-{[4-(cyclopropyloxy)-pyrimidin-5-yl]methyl}-6-ethoxy-5-fluoropyridine-3-carboxamide]",93%
3,"O=C(NCc1cncnc1OC1CC1)c1cc(F)c(OC(F)F)c(F)c1 [Example 76, N-{[4-(cyclopropyloxy)-pyrimidin-5-yl]methyl}-4-(difluoromethoxy)-3,5-difluorobenzamide]",95%
4,"O=C(NCc1cncnc1OC1CC1)c1ccc(OC(F)F)c(F)c1 [Example 77, N-{[4-(cyclopropyloxy)-pyrimidin-5-yl]methyl}-4-(difluoromethoxy)-3-fluorobenzamide]",94%
5,"COc1ncncc1CNC(=O)c1csc(C2CC2)c1 [Example 79, 5-cyclopropyl-N-[(4-methoxypyrimidin-5-yl)methyl]thiophene-3-carboxamide]",89%
6,"O=C(NCc1cncnc1OC1CC1)c1cnc(C2CC2)c(F)c1 [Example 81, 6-cyclopropyl-N-{[4-(cyclopropyloxy)-pyrimidin-5-yl]methyl}-5-fluoropyridine-3-carboxamide]",90%
7,"COc1ncncc1CNC(=O)c1cc(F)c(OC)c(Cl)c1 [Example 84, 3-chloro-5-fluoro-4-methoxy-N-[(4-methoxypyrimidin-5-yl)methyl]benzainide]",91%
8,"CCOc1ncncc1CNC(=O)c1cc(F)c(OC)c(F)c1 [Example 86, N-[(4-ethoxypyrimidin-5-yl)methyl]-3,5-difluoro-4-methoxybenzamide]",90%
9,"CCOc1ncncc1CNC(=O)c1cc(F)c(OC(F)F)c(F)c1 [Example 87, 4-(difluoromethoxy)-N-[(4-ethoxypyrimidin-5-yl)methyl]-3,5-difluorobenzamide]",93%
10,"COc1ccncc1CNC(=O)c1cc(F)c(OC)c(F)c1 [Example 89, 3,5-difluoro-4-methoxy-N-[(4-methoxypyridin-3-yl)methyl]benzamide]",92%
11,"COc1c(F)cc(C(=O)NCc2cncc(F)c2OC)cc1F [Example 90, 3,5-difluoro-N-[(5-fluoro-4-methoxypyridin-3-yl)methyl]-4-methoxybenzamide]",95%
12,"CC(F)(F)c1ncc(C(=O)NCc2cncnc2OC2CC2)cc1F [Example 91, N-{[4-(cyclopropyloxy)-pyrimidin-5-yl]methyl}-6-(1,1-difluoroethyl)-5-fluoropyridine-3-carboxamide]",91%
13,"COc1ncncc1CNC(=O)c1cnc(C(C)(F)F)c(F)c1 [Example 92, 6-(1,1-difluoroethyl)-5-fluoro-N-[(4-methoxypyrimidin-5-yl)methyl]pyridine-3-carboxamide]",86%
14,"Cc1c(F)cncc1CNC(=O)c1cnc(C(C)(F)F)c(F)c1 [Example 94, 6-(1,1-difluoroethyl)-5-fluoro-N-[(5-fluoro-4-methylpyridin-3-yl)methyl]pyridine-3-carboxamide]",91%
15,"O=C(NCc1cnccc1OC(F)F)c1cnc(OC(F)F)c(F)c1 [Example 99, 6-(difluoromethoxy)-N-{[4-(difluoromethoxy)pyridin-3-yl]methyl}-5-fluoropyridine-3-carboxamide]",89%

# Other lines, results leading:
row,inhibition at 10 µM,Compound
1,93%,"Cc1c(F)cncc1CNC(=O)c1cnc(OC(F)F)c(Cl)c1 [Example 73, 5-chloro-6-(difluoromethoxy)-N-[(5-fluoro-4-methylpyridin-3-yl)methyl]pyridine-3-carboxamide]"
2,94%,"O=C(NCc1cncnc1OC1CC1)c1cnc(OC(F)F)c(Cl)c1 [Example 78, 5-chloro-N-{[4-(cyclopropyloxy)pyrimidin-5-yl]methyl}-6-(difluoromethoxy)pyridine-3-carboxamide]"
3,94%,"Cc1c(F)cncc1CNC(=O)c1cnc(C2CC2)c(F)c1 [Example 80, 6-cyclopropyl-5-fluoro-N-[(5-fluoro-4-methylpyridin-3-yl)methyl]pyridine-3-carboxamide]"
4,89%,"COc1ncncc1CNC(=O)c1cnc(C2CC2)c(F)c1 [Example 82, 6-cyclopropyl-5-fluoro-N-[(4-methoxypyrimidin-5-yl)methyl]pyridine-3-carboxamide]"
5,92%,"COc1ncncc1CNC(=O)c1cnc(C2CC2)c(Cl)c1 [Example 83, 5-chloro-6-cyclopropyl-N-[(4-methoxypyrimidin-5-yl)methyl]pyridine-3-carboxamide]"
6,87%,"CCOc1ncc(C(=O)NCc2cncnc2OC)cc1Cl [Example 85, 5-chloro-6-ethoxy-N-[(4-methoxypyrimidin-5-yl)methyl]pyridine-3-carboxamide]"
7,92%,"CCOc1ncncc1CNC(=O)c1cnc(OC(F)F)c(Cl)c1 [Example 88, 5-chloro-6-(difluoromethoxy)-N-[(4-ethoxypyrimidin-5-yl)methyl]pyridine-3-carboxamide]"
8,90%,"Cc1ccncc1CNC(=O)c1cnc(C(C)(F)F)c(F)c1 [Example 93, 6-(1,1-difluoroethyl)-5-fluoro-N-[(4-methylpyridin-3-yl)methyl]pyridine-3-carboxamide]"
9,90%,"CC(F)(F)c1ncc(C(=O)NCc2cncnc2OC2CC2)cc1Cl [Example 95, 5-chloro-N-{[4-(cyclopropyloxy)pyrimidin-5-yl]methyl}-6-(1,1-difluoroethyl)pyridine-3-carboxamide]"
10,85%,"COc1ncncc1CNC(=O)c1cnc(C(C)(F)F)c(Cl)c1 [Example 96, 5-chloro-6-(1,1-difluoroethyl)-N-[(4-methoxypyrimidin-5-yl)methyl]pyridine-3-carboxamide]"
11,92%,"Cc1ccncc1CNC(=O)c1cnc(C(C)(F)F)c(Cl)c1 [Example 97, 5-chloro-6-(1,1-difluoroethyl)-N-[(4-methylpyridin-3-yl)methyl]pyridine-3-carboxamide]"
12,95%,"Cc1c(F)cncc1CNC(=O)c1cnc(C(C)(F)F)c(Cl)c1 [Example 98, 5-chloro-6-(1,1-difluoroethyl)-N-[(5-fluoro-4-methylpyridin-3-yl)methyl]pyridine-3-carboxamide]"
13,72%,"Cc1ccncc1CNC(=O)c1csc(C(F)F)c1 [Example 100, 5-(difluoromethyl)-N-[(4-methylpyridin-3-yl)methyl]thiophene-3-carboxamide]"
14,90%,"Cc1ccncc1CNC(=O)c1cnc(C2CC2(F)F)c(F)c1 (stereo not drawn) [Example 101, 6-(2,2-difluorocyclopropyl)-5-fluoro-N-[(4-methylpyridin-3-yl)methyl]pyridine-3-carboxamide]"
15,93%,"Cc1ccncc1CNC(=O)c1cnc(C2CC2(F)F)c(Cl)c1 (stereo not drawn) [Example 102, 5-chloro-6-(2,2-difluorocyclopropyl)-N-[(4-methylpyridin-3-yl)methyl]pyridine-3-carboxamide]"
16,92%,"Cc1c(F)cncc1CNC(=O)c1cnc(C2CC2(F)F)c(F)c1 (stereo not drawn) [Example 103, 6-(2,2-difluorocyclopropyl)-5-fluoro-N-[(5-fluoro-4-methylpyridin-3-yl)methyl]pyridine-3-carboxamide]"
17,95%,"Cc1c(F)cncc1CNC(=O)c1cnc(C2CC2(F)F)c(Cl)c1 (stereo not drawn) [Example 104, 5-chloro-6-(2,2-difluorocyclopropyl)-N-[(5-fluoro-4-methylpyridin-3-yl)methyl]pyridine-3-carboxamide]"
18,94%,"O=C(NCc1cnccc1OC(F)F)c1cnc(OC(F)F)c(Cl)c1 [Example 111, 5-chloro-6-(difluoromethoxy)-N-[(4-(difluoromethoxy)pyridin-3-yl)methyl]pyridine-3-carboxamide]"
